Here are results for 32 compounds from patent US8129417B2, “Substituted octahydrocyclopenta[C]pyrrol-4-amines as calcium channel blockers” (Abbott Laboratories, priority 2008, dated 2012).

Chain of human Cav2.2 (Q00975 whole entry): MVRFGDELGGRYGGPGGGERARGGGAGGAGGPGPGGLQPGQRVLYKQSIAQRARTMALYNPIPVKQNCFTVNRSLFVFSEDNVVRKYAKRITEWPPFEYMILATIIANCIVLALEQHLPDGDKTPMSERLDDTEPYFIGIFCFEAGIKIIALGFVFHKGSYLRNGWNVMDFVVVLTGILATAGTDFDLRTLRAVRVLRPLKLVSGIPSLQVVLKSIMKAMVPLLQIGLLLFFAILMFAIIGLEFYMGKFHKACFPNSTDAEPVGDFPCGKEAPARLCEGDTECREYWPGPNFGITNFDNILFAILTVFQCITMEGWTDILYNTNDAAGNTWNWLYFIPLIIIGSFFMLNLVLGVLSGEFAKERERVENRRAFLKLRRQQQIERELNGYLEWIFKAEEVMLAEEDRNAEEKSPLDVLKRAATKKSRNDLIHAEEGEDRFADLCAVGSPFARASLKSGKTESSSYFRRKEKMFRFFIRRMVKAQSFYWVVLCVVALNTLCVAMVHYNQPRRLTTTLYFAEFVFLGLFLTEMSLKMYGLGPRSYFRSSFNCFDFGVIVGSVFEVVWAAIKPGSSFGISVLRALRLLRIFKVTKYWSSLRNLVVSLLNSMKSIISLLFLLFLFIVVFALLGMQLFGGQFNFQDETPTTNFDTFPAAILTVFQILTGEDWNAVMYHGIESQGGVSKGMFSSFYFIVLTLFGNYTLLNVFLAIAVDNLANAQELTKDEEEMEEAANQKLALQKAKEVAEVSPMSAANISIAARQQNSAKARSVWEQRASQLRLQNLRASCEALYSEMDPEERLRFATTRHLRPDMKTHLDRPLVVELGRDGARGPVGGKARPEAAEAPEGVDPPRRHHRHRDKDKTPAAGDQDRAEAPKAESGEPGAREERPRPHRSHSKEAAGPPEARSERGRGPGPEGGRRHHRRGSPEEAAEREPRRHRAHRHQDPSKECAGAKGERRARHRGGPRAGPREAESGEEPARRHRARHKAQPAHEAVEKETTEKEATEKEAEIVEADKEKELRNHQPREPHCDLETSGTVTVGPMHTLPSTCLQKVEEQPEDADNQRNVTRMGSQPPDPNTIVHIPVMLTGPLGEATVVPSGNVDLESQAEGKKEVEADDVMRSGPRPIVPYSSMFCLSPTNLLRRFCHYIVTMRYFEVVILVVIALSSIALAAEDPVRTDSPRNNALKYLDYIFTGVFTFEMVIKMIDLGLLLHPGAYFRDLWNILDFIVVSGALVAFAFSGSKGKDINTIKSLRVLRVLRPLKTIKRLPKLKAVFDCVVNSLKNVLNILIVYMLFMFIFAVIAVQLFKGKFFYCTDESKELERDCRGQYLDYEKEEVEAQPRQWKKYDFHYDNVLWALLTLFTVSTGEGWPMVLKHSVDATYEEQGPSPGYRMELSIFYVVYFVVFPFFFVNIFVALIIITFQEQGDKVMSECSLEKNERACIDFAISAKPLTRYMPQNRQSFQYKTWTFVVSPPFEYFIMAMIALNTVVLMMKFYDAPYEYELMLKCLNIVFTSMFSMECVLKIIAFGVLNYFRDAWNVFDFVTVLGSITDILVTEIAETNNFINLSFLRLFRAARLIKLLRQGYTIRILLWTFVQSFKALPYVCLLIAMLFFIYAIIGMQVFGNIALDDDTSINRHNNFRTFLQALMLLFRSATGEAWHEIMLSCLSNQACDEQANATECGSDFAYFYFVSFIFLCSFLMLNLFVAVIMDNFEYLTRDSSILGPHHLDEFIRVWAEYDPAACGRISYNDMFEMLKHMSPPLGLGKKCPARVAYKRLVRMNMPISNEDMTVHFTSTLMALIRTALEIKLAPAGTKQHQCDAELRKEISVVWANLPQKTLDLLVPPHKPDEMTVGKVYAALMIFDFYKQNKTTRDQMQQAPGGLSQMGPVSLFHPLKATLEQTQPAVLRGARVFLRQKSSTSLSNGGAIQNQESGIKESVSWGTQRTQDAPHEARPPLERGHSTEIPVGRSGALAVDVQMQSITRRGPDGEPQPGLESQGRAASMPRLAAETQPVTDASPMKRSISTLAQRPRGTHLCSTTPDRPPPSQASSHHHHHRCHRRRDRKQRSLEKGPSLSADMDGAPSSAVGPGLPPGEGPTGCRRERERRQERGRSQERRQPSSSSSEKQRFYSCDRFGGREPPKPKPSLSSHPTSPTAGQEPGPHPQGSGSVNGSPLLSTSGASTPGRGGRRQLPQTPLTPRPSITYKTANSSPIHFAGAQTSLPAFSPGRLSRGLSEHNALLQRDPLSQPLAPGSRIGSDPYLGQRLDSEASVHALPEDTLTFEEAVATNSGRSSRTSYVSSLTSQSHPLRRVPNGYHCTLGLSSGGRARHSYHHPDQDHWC
Chain of human Cav2.2 (P54289 25-946 partner limits assumed): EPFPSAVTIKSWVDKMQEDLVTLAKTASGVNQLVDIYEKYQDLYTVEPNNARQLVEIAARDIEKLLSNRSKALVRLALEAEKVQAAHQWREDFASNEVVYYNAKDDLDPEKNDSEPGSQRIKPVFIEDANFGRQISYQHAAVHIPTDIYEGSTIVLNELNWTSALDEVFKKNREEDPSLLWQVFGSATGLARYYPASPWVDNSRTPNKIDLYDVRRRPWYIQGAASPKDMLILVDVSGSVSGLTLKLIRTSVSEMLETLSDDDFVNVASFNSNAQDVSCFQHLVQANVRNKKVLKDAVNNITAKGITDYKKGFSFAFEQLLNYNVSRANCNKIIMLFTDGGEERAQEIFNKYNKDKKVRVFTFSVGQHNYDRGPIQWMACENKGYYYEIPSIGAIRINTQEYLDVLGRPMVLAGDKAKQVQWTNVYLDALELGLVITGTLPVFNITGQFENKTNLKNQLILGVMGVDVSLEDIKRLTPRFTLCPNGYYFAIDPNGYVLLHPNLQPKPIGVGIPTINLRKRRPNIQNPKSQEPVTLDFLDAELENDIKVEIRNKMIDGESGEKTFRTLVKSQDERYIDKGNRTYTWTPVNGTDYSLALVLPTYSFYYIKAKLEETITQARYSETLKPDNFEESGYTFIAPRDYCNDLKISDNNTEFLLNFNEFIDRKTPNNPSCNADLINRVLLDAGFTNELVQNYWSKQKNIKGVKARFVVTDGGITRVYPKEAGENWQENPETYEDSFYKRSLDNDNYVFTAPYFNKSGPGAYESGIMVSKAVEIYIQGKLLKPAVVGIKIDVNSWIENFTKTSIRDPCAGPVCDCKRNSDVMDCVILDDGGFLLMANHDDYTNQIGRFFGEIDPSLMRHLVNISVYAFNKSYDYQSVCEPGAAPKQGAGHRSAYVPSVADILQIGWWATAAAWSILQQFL
Chain of human Cav2.2 (P54289 947-1103 partner limits assumed): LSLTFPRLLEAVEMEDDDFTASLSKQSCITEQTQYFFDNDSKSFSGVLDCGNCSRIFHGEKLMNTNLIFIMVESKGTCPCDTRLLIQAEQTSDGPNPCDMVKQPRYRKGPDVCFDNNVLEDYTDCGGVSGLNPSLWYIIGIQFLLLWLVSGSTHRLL
Chain of human Cav2.2 (P54284 whole entry partner): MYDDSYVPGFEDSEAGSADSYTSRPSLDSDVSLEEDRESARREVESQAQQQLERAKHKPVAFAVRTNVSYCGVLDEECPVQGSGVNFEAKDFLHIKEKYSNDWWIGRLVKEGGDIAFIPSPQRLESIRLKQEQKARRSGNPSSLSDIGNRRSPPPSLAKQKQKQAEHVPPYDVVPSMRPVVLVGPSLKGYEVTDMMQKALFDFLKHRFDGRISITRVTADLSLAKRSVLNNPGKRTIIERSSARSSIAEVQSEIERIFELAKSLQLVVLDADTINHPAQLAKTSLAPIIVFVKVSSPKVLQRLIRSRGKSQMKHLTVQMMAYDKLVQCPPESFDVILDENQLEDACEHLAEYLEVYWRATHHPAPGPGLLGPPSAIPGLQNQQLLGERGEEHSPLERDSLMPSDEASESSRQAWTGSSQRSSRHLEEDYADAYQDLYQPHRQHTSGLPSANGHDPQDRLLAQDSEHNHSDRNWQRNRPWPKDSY

The first assay has as its target human Cav2.2 (Homo sapiens, UniProt Q00975). The experiment in a line: Assessment of calcium channel activity using FLIPR (Ca2+ influx in IMR32 cells). The class given is cell-based. The conditions noted are these: 3 minute pre-incubation with compound (*), 2 μM nifedipine, depolarized with 80 mM KCl. Here is the method:
(i) In Vitro Methods—Assessment of Calcium Channel Activity Using FLIPR:
The IMR32 cells were maintained in MEM media containing 10% (v/v) FBS, 1% (v/v) antibiotic/antimitotic, 1% (v/v) sodium pyruvate and 1% (v/v) MEM NEAA. Following dissociation in 0.05% (v/v) trypsin/EDTA, cells were seeded into black 1×96-well plates (Corning Cellbind) at a density of 1-1.2×10^5 cells/well and incubated in the maintenance media above for 48 hours at 37° C. […] To determine the IC50 values, the percent inhibition of the compound at each concentration was determined relative to the activity in the absence of inhibitor, and data was fitted using non-linear regression sigmoidal dose response curve analysis with GraphPad Prism®.
As to `CCCC(CCC)C(=O)N[C@@H]1CC[C@H]2CN(Cc3ccccc3)C[C@H]21` [Example 21, N-[(3aS,4R,6aR)-2-benzyloctahydrocyclopenta[c]pyrrol-4-yl]-2-propylpentanamide], the IC50 came to 10.1 µM.

In the case of `O=C(N[C@@H]1CC[C@H]2CN(Cc3ccccc3)C[C@H]21)C1CCCCCC1` [Example 22, N-[(3aS,4R,6aR)-2-benzyloctahydrocyclopenta[c]pyrrol-4-yl]cycloheptanecarboxamide], the IC50 was 14.7 µM.

Consider `O=C(N[C@@H]1CC[C@H]2CN(Cc3ccccc3)C[C@H]21)C1(c2ccccc2)CCCCC1` [Example 24, N-[(3aS,4R,6aR)-2-benzyloctahydrocyclopenta[c]pyrrol-4-yl]-1-phenylcyclohexanecarboxamide], for which the 50% inhibitory concentration (IC50) stood at 2.9 µM.

`O=C(N[C@@H]1CC[C@H]2CN(Cc3ccccc3)C[C@H]21)C(Cc1ccccc1)c1ccccc1` (stereo partly drawn) [Example 25, N-[(3aS,4R,6aR)-2-benzyloctahydrocyclopenta[c]pyrrol-4-yl]-2,3-diphenylpropanamide]: the IC50 worked out at 3.7 µM.

For `CC(Cc1ccccc1)C(=O)N[C@@H]1CC[C@H]2CN(Cc3ccccc3)C[C@H]21` (stereo partly drawn) [Example 26, N-[(3aS,4R,6aR)-2-benzyloctahydrocyclopenta[c]pyrrol-4-yl]-2-methyl-3-phenylpropanamide], the concentration for half-maximal inhibition (IC50) came out at 17.3 µM.

Consider `CC(C)(C(=O)N[C@@H]1CC[C@H]2CN(Cc3ccccc3)C[C@H]21)c1ccccc1` [Example 27, N-[(3aS,4R,6aR)-2-benzyloctahydrocyclopenta[c]pyrrol-4-yl]-2-methyl-2-phenylpropanamide], for which the half-inhibitory concentration (IC50) was 9.7 µM.

`O=C(N[C@@H]1CC[C@H]2CN(Cc3ccccc3)C[C@H]21)C1(c2ccccc2)CC1` [Example 28, N-[(3aS,4R,6aR)-2-benzyloctahydrocyclopenta[c]pyrrol-4-yl]-1-phenylcyclopropanecarboxamide]: the IC50 came to 13.9 µM.

For the compound `CC(C)(C)C(Cc1ccccc1)C(=O)N[C@@H]1CC[C@H]2CN(Cc3ccccc3)C[C@H]21` (stereo partly drawn) [Example 29, 2-benzyl-N-[(3aS,4R,6aR)-2-benzyloctahydrocyclopenta[c]pyrrol-4-yl]-3,3-dimethylbutanamide], the IC50 stood at 5.6 µM.

Regarding `O=C(N[C@H]1CC[C@@H]2CN(Cc3ccccc3)C[C@@H]21)C(C1CCCCC1)C1CCCCC1` [Example 40, N-[(3aR,4S,6aS)-2-benzyloctahydrocyclopenta[c]pyrrol-4-yl]-2,2-dicyclohexylacetamide], the IC50 was determined as 3.6 µM.

For `CCC(CC)C(C(=O)N[C@H]1CC[C@@H]2CN(Cc3ccccc3)C[C@@H]21)c1ccccc1` (stereo partly drawn) [Example 44, N-[(3aR,4S,6aS)-2-benzyloctahydrocyclopenta[c]pyrrol-4-yl]-3-ethyl-2-phenylpentanamide], the IC50 stood at 1.7 µM.

As for `O=C(N[C@H]1CC[C@@H]2CN(Cc3ccccc3)C[C@@H]21)C1(c2ccccc2)CCCCC1` [Example 46, N-[(3aR,4S,6aS)-2-benzyloctahydrocyclopenta[c]pyrrol-4-yl]-1-phenylcyclohexanecarboxamide], the half-inhibitory concentration (IC50) is 3.1 µM.

Consider `CC(C)(C(=O)N[C@H]1CC[C@@H]2CN(Cc3ccccc3)C[C@@H]21)c1ccccc1` [Example 47, N-[(3aR,4S,6aS)-2-benzyloctahydrocyclopenta[c]pyrrol-4-yl]-2-methyl-2-phenylpropanamide], for which the IC50 is 15.6 µM.

As for `O=C(N[C@H]1CC[C@@H]2CN(Cc3ccccc3)C[C@@H]21)C1(c2ccccc2)CC1` [Example 48, N-[(3aR,4S,6aS)-2-benzyloctahydrocyclopenta[c]pyrrol-4-yl]-1-phenylcyclopropanecarboxamide], the IC50 was found to be 10.5 µM.

Regarding `CC(C)(C)C(Cc1ccccc1)C(=O)N[C@H]1CC[C@@H]2CN(Cc3ccccc3)C[C@@H]21` (stereo partly drawn) [Example 49, 2-benzyl-N-[(3aR,4S,6aS)-2-benzyloctahydrocyclopenta[c]pyrrol-4-yl]-3,3-dimethylbutanamide], the IC50 stood at 4.6 µM.

In the case of `O=C(N[C@H]1CC[C@@H]2CN(Cc3ccccc3)C[C@@H]21)C(Cc1ccccc1)c1ccccc1` (stereo partly drawn) [Example 50, N-[(3aR,4S,6aS)-2-benzyloctahydrocyclopenta[c]pyrrol-4-yl]-2,3-diphenylpropanamide], the IC50 worked out at 5 µM.

Turning to `CC(Cc1ccccc1)C(=O)N[C@H]1CC[C@@H]2CN(Cc3ccccc3)C[C@@H]21` (stereo partly drawn) [Example 51, N-[(3aR,4S,6aS)-2-benzyloctahydrocyclopenta[c]pyrrol-4-yl]-2-methyl-3-phenylpropanamide], the concentration for half-maximal inhibition (IC50) came to 15.2 µM.

The assay is the same for the next values; noted with them: 60 minute pre-incubation with compound, 2 μM nifedipine, depolarized with 80 mM KCl.
With `O=C(N[C@@H]1CC[C@H]2CN(Cc3ccccc3)C[C@H]21)C(C1CCCCC1)C1CCCCC1` [Example 20, N-[(3aS,4R,6aR)-2-benzyloctahydrocyclopenta[c]pyrrol-4-yl]-2,2-dicyclohexylacetamide], the IC50 is 1.8 µM.

As for `CC(C)Cc1ccc([C@H](C)C(=O)N[C@@H]2CC[C@H]3CN(Cc4ccccc4)C[C@H]32)cc1` [Example 23, (2S)—N-[(3aS,4R,6aR)-2-benzyloctahydrocyclopenta[c]pyrrol-4-yl]-2-(4-isobutylphenyl)propanamide], the half-maximal inhibitory concentration (IC50) amounted to 2.5 µM.

As for `O=C(N[C@H]1CC[C@H]2CN(Cc3ccccc3F)C[C@H]21)C(C1CCCCC1)C1CCCCC1` [Example 55, 2,2-dicyclohexyl-N-[(3aS,4S,6aR)-2-(2-fluorobenzyl)octahydrocyclopenta[c]pyrrol-4-yl]acetamide], the IC50 is 0.8 µM.

With `O=C(N[C@H]1CC[C@H]2CN(Cc3ccc(F)cc3)C[C@H]21)C(C1CCCCC1)C1CCCCC1` [Example 56, 2,2-dicyclohexyl-N-[(3aS,4S,6aR)-2-(4-fluorobenzyl)octahydrocyclopenta[c]pyrrol-4-yl]acetamide], the half-maximal inhibitory concentration (IC50) worked out at 1 µM.

In the case of `O=C(N[C@H]1CC[C@H]2CN(Cc3ccccc3C(F)(F)F)C[C@H]21)C(C1CCCCC1)C1CCCCC1` [Example 60, 2,2-dicyclohexyl-N-{(3aS,4S,6aR)-2-[2-(trifluoromethyl)benzyl]octahydrocyclopenta[c]pyrrol-4-yl}acetamide], the 50% inhibitory concentration (IC50) is 1.5 µM.

With `Cc1cccc(CN2C[C@@H]3CC[C@H](NC(=O)C(C4CCCCC4)C4CCCCC4)[C@@H]3C2)c1` [Example 61, 2,2-dicyclohexyl-N-[(3aS,4S,6aR)-2-(3-methylbenzyl)octahydrocyclopenta[c]pyrrol-4-yl]acetamide], the half-inhibitory concentration (IC50) worked out at 1.5 µM.

With `O=C(N[C@H]1CC[C@H]2CN(Cc3cccc(OC(F)(F)F)c3)C[C@H]21)C(C1CCCCC1)C1CCCCC1` [Example 63, 2,2-dicyclohexyl-N-{(3aS,4S,6aR)-2-[3-(trifluoromethoxy)benzyl]octahydrocyclopenta[c]pyrrol-4-yl}acetamide], the 50% inhibitory concentration (IC50) is 0.6 µM.

Consider `O=C(N[C@H]1CC[C@H]2CN(Cc3cccc(F)c3)C[C@H]21)C(C1CCCCC1)C1CCCCC1` [Example 64, 2,2-dicyclohexyl-N-[(3aS,4S,6aR)-2-(3-fluorobenzyl)octahydrocyclopenta[c]pyrrol-4-yl]acetamide], for which the IC50 came out at 1.3 µM.

Regarding `O=C(N[C@H]1CC[C@H]2CN(CCC(c3ccc(F)cc3)c3ccc(F)cc3)C[C@H]21)C(C1CCCCC1)C1CCCCC1` [Example 65, N-{(3aS,4S,6aR)-2-[3,3-bis(4-fluorophenyl)propyl]octahydrocyclopenta[c]pyrrol-4-yl}-2,2-dicyclohexylacetamide], the concentration for half-maximal inhibition (IC50) was determined as 4.5 µM.

As to `O=C(N[C@H]1CC[C@H]2CN(CCCCCC(c3ccc(F)cc3)c3ccc(F)cc3)C[C@H]21)C(C1CCCCC1)C1CCCCC1` [Example 66, N-{(3aS,4S,6aR)-2-[6,6-bis(4-fluorophenyl)hexyl]octahydrocyclopenta[c]pyrrol-4-yl}-2,2-dicyclohexylacetamide], the 50% inhibitory concentration (IC50) came to 0.9 µM.

As to `O=C(N[C@H]1CC[C@H]2CN(CCCc3cccc(F)c3)C[C@H]21)C(C1CCCCC1)C1CCCCC1` [Example 68, 2,2-dicyclohexyl-N-{(3aS,4S,6aR)-2-[3-(3-fluorophenyl)propyl]octahydrocyclopenta[c]pyrrol-4-yl}acetamide], the IC50 came out at 1.7 µM.

Still in this assay, the particulars now being: IMR-32, @ 10 μM, 3 minute pre-incubation (*), read-out: percent inhibition.
Take `CC[C@@H](C(=O)N[C@H]1CC[C@@H]2CN(Cc3ccccc3)C[C@@H]21)c1ccccc1` [Example 36, (2R)—N-[(3aR,4S,6aS)-2-benzyloctahydrocyclopenta[c]pyrrol-4-yl]-2-phenylbutanamide]: the inhibition at 10 µM was 44%.

`C[C@@H](C(=O)N[C@H]1CC[C@@H]2CN(Cc3ccccc3)C[C@@H]21)c1ccccc1` [Example 37, (2R)—N-[(3aR,4S,6aS)-2-benzyloctahydrocyclopenta[c]pyrrol-4-yl]-2-phenylpropanamide]: the inhibition at 10 µM turned out to be 15%.

Consider `C[C@H](C(=O)N[C@H]1CC[C@@H]2CN(Cc3ccccc3)C[C@@H]21)c1ccccc1` [Example 38, (2S)—N-[(3aR,4S,6aS)-2-benzyloctahydrocyclopenta[c]pyrrol-4-yl]-2-phenylpropanamide], for which the inhibition at 10 µM was 27%.

As to `CC(C)Cc1ccc([C@H](C)C(=O)N[C@H]2CC[C@@H]3CN(Cc4ccccc4)C[C@@H]32)cc1` [Example 39, (2S)—N-[(3aR,4S,6aS)-2-benzyloctahydrocyclopenta[c]pyrrol-4-yl]-2-(4-isobutylphenyl)propanamide], the inhibition at 10 µM stood at 92%.

As to `O=C(N[C@H]1CC[C@@H]2CN(Cc3ccccc3)C[C@@H]21)C(c1ccccc1)C1CC1` (stereo partly drawn) [Example 41, N-[(3aR,4S,6aS)-2-benzyloctahydrocyclopenta[c]pyrrol-4-yl]-2-cyclopropyl-2-phenylacetamide], the inhibition at 10 µM stood at 56%.
